Earlier results as cited in publication PMC8513935.
Blank lines part the entries; values can stand above or below the molecule they belong to.

Key:
[1] = experimental, compiled by the authors from the literature (the ESI cites the sources)
[2] = derived by the authors as gas->solvent minus gas->water (a hypothetical dry solvent; the ESI), not a two-phase measurement

Compound: CNC(C)=O
log K of transfer, gas to solvent ([1]; Hexadecane, 25 C): 2.97 log10 K | log K of transfer, gas to solvent ([1]; Water, 25 C): 6.88 log10 K | log K of transfer, water to solvent ([2]; Hexadecane, 25 C): -3.9 log10 K

Compound: NC1CCCCC1
log K of transfer, gas to solvent ([1]; Hexadecane, 25 C): 3.79 log10 K | log K of transfer, gas to solvent ([1]; Water, 25 C): 3.37 log10 K | log K of transfer, water to solvent ([2]; Hexadecane, 25 C): 0.426 log10 K

Compound: CCCCC
log K of transfer, gas to solvent ([1]; 1,2-Dichloroethane, 25 C): 1.99 log10 K | log K of transfer, gas to solvent ([1]; Acetonitrile, 25 C): 1.53 log10 K | log K of transfer, gas to solvent ([1]; Benzene, 25 C): 2.19 log10 K | log K of transfer, gas to solvent ([1]; Butan-1-ol, 25 C): 1.98 log10 K | log K of transfer, gas to solvent ([1]; Butan-2-ol, 25 C): 1.94 log10 K | log K of transfer, gas to solvent ([1]; Butanone, 25 C): 2.07 log10 K | log K of transfer, gas to solvent ([1]; Butyronitrile, 25 C): 1.92 log10 K | log K of transfer, gas to solvent ([1]; CCl4, 25 C): 2.36 log10 K | log K of transfer, gas to solvent ([1]; Chlorobenzene, 25 C): 2.43 log10 K | log K of transfer, gas to solvent ([1]; Chloroform, 25 C): 2.36 log10 K | log K of transfer, gas to solvent ([1]; Cyclohexane, 25 C): 2.57 log10 K | log K of transfer, gas to solvent ([1]; Cyclohexanone, 25 C): 1.98 log10 K | log K of transfer, gas to solvent ([1]; Di-n-butyl ether, 25 C): 2.33 log10 K | log K of transfer, gas to solvent ([1]; Dichloromethane, 25 C): 2.24 log10 K | log K of transfer, gas to solvent ([1]; Ethanol, 25 C): 1.78 log10 K | log K of transfer, gas to solvent ([1]; Heptan-1-ol, 25 C): 1.95 log10 K | log K of transfer, gas to solvent ([1]; Hexadecane, 25 C): 2.16 log10 K | log K of transfer, gas to solvent ([1]; Hexan-1-ol, 25 C): 1.97 log10 K | log K of transfer, gas to solvent ([1]; Hexane, 25 C): 2.44 log10 K | log K of transfer, gas to solvent ([1]; Methanol, 25 C): 1.66 log10 K | log K of transfer, gas to solvent ([1]; Octan-1-ol, 25 C): 1.95 log10 K | log K of transfer, gas to solvent ([1]; Pentan-1-ol, 25 C): 1.94 log10 K | log K of transfer, gas to solvent ([1]; Perfluoroalkane, 25 C): 1.55 log10 K | log K of transfer, gas to solvent ([1]; Propan-1-ol, 25 C): 1.81 log10 K | log K of transfer, gas to solvent ([1]; Propan-2-ol, 25 C): 1.85 log10 K | log K of transfer, gas to solvent ([1]; Propanone, 25 C): 1.98 log10 K | log K of transfer, gas to solvent ([1]; Tetrahydrofuran, 25 C): 2.33 log10 K | log K of transfer, gas to solvent ([1]; Toluene, 25 C): 2.3 log10 K | log K of transfer, gas to solvent ([1]; Water, 25 C): -1.7 log10 K | log K of transfer, water to solvent ([2]; 1,2-Dichloroethane, 25 C): 3.69 log10 K | log K of transfer, water to solvent ([2]; Acetone, 25 C): 3.68 log10 K | log K of transfer, water to solvent ([2]; Acetonitrile, 25 C): 3.23 log10 K | log K of transfer, water to solvent ([2]; Benzene, 25 C): 3.89 log10 K | log K of transfer, water to solvent ([2]; Butan-1-ol, 25 C): 3.68 log10 K | log K of transfer, water to solvent ([2]; Butan-2-ol, 25 C): 3.64 log10 K | log K of transfer, water to solvent ([2]; Butanone, 25 C): 3.77 log10 K | log K of transfer, water to solvent ([2]; Butyronitrile, 25 C): 3.62 log10 K | log K of transfer, water to solvent ([2]; CCl4, 25 C): 4.06 log10 K | log K of transfer, water to solvent ([2]; Chlorobenzene, 25 C): 4.13 log10 K | log K of transfer, water to solvent ([2]; Chloroform, 25 C): 4.06 log10 K | log K of transfer, water to solvent ([2]; Cyclohexane, 25 C): 4.27 log10 K | log K of transfer, water to solvent ([2]; Cyclohexanone, 25 C): 3.68 log10 K | log K of transfer, water to solvent ([2]; Di-n-butyl ether, 25 C): 4.03 log10 K | log K of transfer, water to solvent ([2]; Dichloromethane, 25 C): 3.94 log10 K | log K of transfer, water to solvent ([2]; Ethanol, 25 C): 3.48 log10 K | log K of transfer, water to solvent ([2]; Heptan-1-ol, 25 C): 3.65 log10 K | log K of transfer, water to solvent ([2]; Hexadecane, 25 C): 3.86 log10 K | log K of transfer, water to solvent ([2]; Hexan-1-ol, 25 C): 3.67 log10 K | log K of transfer, water to solvent ([2]; Hexane, 25 C): 4.14 log10 K | log K of transfer, water to solvent ([2]; Methanol, 25 C): 3.36 log10 K | log K of transfer, water to solvent ([2]; Octan-1-ol(dry), 25 C): 3.65 log10 K | log K of transfer, water to solvent ([2]; Pentan-1-ol, 25 C): 3.64 log10 K | log K of transfer, water to solvent ([2]; Perfluoroalkane, 25 C): 3.25 log10 K | log K of transfer, water to solvent ([2]; Propan-1-ol, 25 C): 3.51 log10 K | log K of transfer, water to solvent ([2]; Propan-2-ol, 25 C): 3.55 log10 K | log K of transfer, water to solvent ([2]; Tetrahydrofuran, 25 C): 4.03 log10 K | log K of transfer, water to solvent ([2]; Toluene, 25 C): 4.01 log10 K

More lines, now with the values ahead:

log K of transfer, gas to solvent ([1]; Decan-1-ol, 25 C): 10.9 log10 K | log K of transfer, gas to solvent ([1]; Di-n-butyl ether, 25 C): 10.6 log10 K | log K of transfer, gas to solvent ([1]; Diethyl Ether, 25 C): 11 log10 K | log K of transfer, gas to solvent ([1]; Hexadecane, 25 C): 9.66 log10 K | log K of transfer, gas to solvent ([1]; Hexan-1-ol, 25 C): 10.9 log10 K | log K of transfer, gas to solvent ([1]; Octan-1-ol, 25 C): 10.9 log10 K | log K of transfer, gas to solvent ([1]; Propan-2-ol, 25 C): 10.9 log10 K | log K of transfer, gas to solvent ([1]; Water, 25 C): 1.78 log10 K | log K of transfer, water to solvent ([2]; Decan-1-ol, 25 C): 9.12 log10 K | log K of transfer, water to solvent ([2]; Di-n-butyl ether, 25 C): 8.85 log10 K | log K of transfer, water to solvent ([2]; Diethyl Ether, 25 C): 9.2 log10 K | log K of transfer, water to solvent ([2]; Hexadecane, 25 C): 7.88 log10 K | log K of transfer, water to solvent ([2]; Hexan-1-ol, 25 C): 9.16 log10 K | log K of transfer, water to solvent ([2]; Octan-1-ol(dry), 25 C): 9.15 log10 K | log K of transfer, water to solvent ([2]; Propan-2-ol, 25 C): 9.12 log10 K
Compound: CCCCCCCCCCCCCCCCCCO

log K of transfer, gas to solvent ([1]; Decan-1-ol, 25 C): 12 log10 K | log K of transfer, gas to solvent ([1]; Hexadecane, 25 C): 10.7 log10 K | log K of transfer, gas to solvent ([1]; Hexan-1-ol, 25 C): 12.1 log10 K | log K of transfer, gas to solvent ([1]; Octan-1-ol, 25 C): 12.1 log10 K | log K of transfer, gas to solvent ([1]; Propan-2-ol, 25 C): 11.9 log10 K | log K of transfer, gas to solvent ([1]; Water, 25 C): 1.54 log10 K | log K of transfer, water to solvent ([2]; Decan-1-ol, 25 C): 10.5 log10 K | log K of transfer, water to solvent ([2]; Hexadecane, 25 C): 9.12 log10 K | log K of transfer, water to solvent ([2]; Hexan-1-ol, 25 C): 10.5 log10 K | log K of transfer, water to solvent ([2]; Octan-1-ol(dry), 25 C): 10.5 log10 K | log K of transfer, water to solvent ([2]; Propan-2-ol, 25 C): 10.3 log10 K
Compound: CCCCCCCCCCCCCCCCCCCCO
